Reference: patent publication US20230143604A1, “QW DOSING OF GIP RECEPTOR AGONIST PEPTIDE COMPOUNDS AND USES THEREOF” (TAKEDA PHARMACEUTICAL COMPANY LIMITED, priority 2020, published 2023)
Like-named read-outs stand apart in the source and are kept apart here. Starred links: 1 amine or outer side, 2 acyl side, 3 side chain; linkers in the order of their positions; H or OH if unused. Non-standard residues stand in square brackets, D forms with d. Residues, ends and D or L forms follow the SMILES beside them. Groups on a side chain read outwards from the residue. *: point of attachment. C18 diacid = O=C(O)CCCCCCCCCCCCCCCCC(=O)*; C17 diacid = O=C(O)CCCCCCCCCCCCCCCC(=O)*; γGlu = O=C(O)[C@H](CCC(=O)[*:2])N[*:1]; NMeY = CN[C@@H](Cc1ccc(O)cc1)C(=O)O; AEEA = NCCOCCOCC(=O)O; Aib = CC(C)(N)C(=O)O

Tests used:
[1] = Dog plasma protein binding (PPB); type: in vitro ADME; details: fraction unbound, dog serum; for fraction unbound at 30 min, 1000 nmol/L: pH 7.4, read-out: Dog PPB (FUplasma)
Source text: Dog PPB values presented below are obtained essentially as described for Human PPB samples, with the difference being that dog serum is used instead of human serum. Table 10 is provided with the values of (Fu,plasma) as fraction unbound expressed as a percentage compared to the percent bound. i.e. if the value is 0.0123, then the fraction unbound is […], which is 1.23% of the peptide is unbound and 98.77% is bound in plasma. Methods and analysis for performing the dog PPB protocol and results are the same as noted herein as for the Human PPB protocol and analysis.

[2] = Solubility in phosphate buffer pH 7.4
In short: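 3 mg of peptide treated with 100 μL portions of 200 mM phosphate buffer pH 7.4, sonicating/vortexing up to 1 min, with further buffer added until fully dissolved. Solubility then quantified by HPLC.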

[3] = Human plasma protein binding (PPB); type: in vitro ADME; details: for fraction unbound at 30 min, 1000 nmol/L: both sexes, pH 7.4, read-out: Human PPB (FUplasma); for free unbound peptide in human plasma (in words): judged for once per week (QW) dosing
Description: Stock solutions: (1000 μM) of the peptides are prepared in DMSO.
Human plasma (mixed gender; containing K2-EDTA as anti-coagulant; pre-adjusted to pH 7.4—NB alternative species may be used) is spiked individually with each test peptide (1000 nmol/L), sampled for analysis and then incubated (n=4) at 37° C. in a water bath for 30 minutes. Following the incubation period, the plasma is sampled for analysis, then transferred to ultracentrifugation tubes and centrifuged (n=3) at […] and 4° C. for 3 hours, after which the supernatant is sampled for analysis. An additional aliquot of the supernatant is taken at the end of the centrifugation period to determine the total protein concentration. An aliquot of the incubated plasma will be stored at 4° C. for 3 hours and then sampled for analysis. At the point of sampling, all samples are matrix-matched, treated with ice-cold acetonitrile/methanol (4:1 (vfv)) containing internal standard, centrifuged al 2000 g and 4° C. for 10 minutes and stored prior to LC-MS/MS analysis. An appropriate positive control compound control will be incubated and centrifuged in parallel; control plasma is also centrifuged to generate samples for matrix-matching. Fraction unbound in plasma (Fuplasma) values is determined by comparison of the analyte response in plasma to the analyte response in the supernatant, determined via peak area response ratios.
The samples are analyzed by LC-MS/MS using a 6500 (or equivalent) triple quadrupole mass spectrometer (AB Sciex) coupled to an appropriate Liquid Chromatography (LC) system. Protein binding and stability values are determined via peak area ratios using multiple reaction monitoring (MRM) parameters following compound optimisation. Multiple reaction monitoring (MRM) is a highly sensitive method of targeted mass spectrometry (MS) that can be used to selectively detect and quantify peptides based on the screening of specified precursor peptide-to-fragment ion transitions.

[4] = Pharmacokinetics in dog after IV and SC dosing; details: in vivo
Description: Pharmacokinetic (PK) were conducted in dog in order to determine the half-life after IV and SC dosing. The peptide was dissolved in 10% DMSO/0.09% Polysorbate/PBS pH 7.4 to a concentration of 3 nmol/mL and the animal were dose with a volume of 1 mL/kg SC or IV. Blood sample were collected at 0, 0.033, 0.083, 0.25, 0.5, 1, 2, 4, 6, 8, 12, 24, 48, 72, 96, 120, 168, 336 hours for IV dosing and 0.25, 0.5, 1, 2, 4, 6, 8, 12, 24, 48, 72, 96, 120, 168, 336 for SC dosing, EDTA-K2 was used as anticoagulant. The plasma concentration of the peptide was measured using LCMS. Allometric scaling of lipidated peptide pharmacokinetics including T1/2 and MRT is known in the art for rodent to dog and mini pig and to humans. […] See for example, Discovery and Development of Liraglutide and Semaglutide. Knudsen, L. B.; Lau, J. Frontiers in Endocrinology, 2019, vol 10, Article 155.

[5] = test system: C57BL/6J mice; assay: Oral glucose tolerance test (OGTT); type: in vivo; details: 3 nmol/kg s.c., 24 hours before glucose loading
In short: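 Peptide or vehicle given s.c. at 0.1, 0.3, 3 or 10 nmol/kg (peptide-dependent), 24 h before oral 50% dextrose at 5 ml/kg unless stated otherwise. Blood glucose read at 0, 15, 30 and 60 min. % inhibition = (1−(AUC cpd−AUC naïve)/(AUC veh−AUC naïve))×100.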

[6] = biological target: T1, human GLP-1R (Homo sapiens, UniProt P43220); assay: Human GLP1R agonist activity, intracellular cAMP accumulation; type: cell-based; details: Human GLP1R cAMP EC50, HEK293T (nM), HEK-293T cells overexpressing human GLP-1R, 1 hr
T1 construct: HEK-293T cells overexpressing full-length human GLP-1R; FLAG (N); host or cells: HEK-293T
T1 sequence (P43220 24-463): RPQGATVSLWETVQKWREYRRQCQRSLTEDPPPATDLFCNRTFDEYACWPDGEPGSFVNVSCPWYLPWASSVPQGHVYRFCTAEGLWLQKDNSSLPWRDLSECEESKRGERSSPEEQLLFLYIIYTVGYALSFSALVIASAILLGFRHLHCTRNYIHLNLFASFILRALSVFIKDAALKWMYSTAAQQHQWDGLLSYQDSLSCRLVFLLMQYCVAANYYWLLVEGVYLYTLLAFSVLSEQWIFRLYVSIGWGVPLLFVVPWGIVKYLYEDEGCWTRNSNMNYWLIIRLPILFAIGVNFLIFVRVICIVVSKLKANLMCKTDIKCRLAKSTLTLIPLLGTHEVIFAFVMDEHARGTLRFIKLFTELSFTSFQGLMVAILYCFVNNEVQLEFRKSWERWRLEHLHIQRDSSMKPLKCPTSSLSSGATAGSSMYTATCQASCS
In short: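 Frozen assay-ready cells washed and resuspended at 4×10^5 cells/mL in Krebs Ringer buffer, then incubated with compound 1 hr at room temperature in the dark. cAMP read by HTRF (anti-cAMP antibody, d2-cAMP tracer). Normalised to 1 nm GLP-1 (100%) and DMSO (0%).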

[7] = fraction unbound, human plasma, 1000 nmol/L peptide, ultracentrifugation

Row | Structure (SMILES) | fraction unbound at 30 min, 1000 nmol/L [1] | solubility ([2]; pH 7.4, aqueous buffer, pH 7.4 Phosphate Buffer - Solubility, 200 mM Phosphate buffer pH 7.4) [mg/mL] | solubility ([2]; pH 7.4, solubility in phosphate buffer at pH 7.4, 200 mM phosphate buffer pH 7.4) [mg/mL] | fraction unbound at 30 min, 1000 nmol/L [3, 7] | free unbound peptide in human plasma (in words) [3] | MRT ([4]; 3 nmol/kg, read-out: mean residence time (MRT)) [h] | half-life ([4]; IV 3 nmol/kg, read-out: IV T½ (converted)) [h] | MRT last ([4]; SC 3 nmol/kg, read-out: SC MRT 0-last) [h] | Dog PPB (FUplasma) [1] | solubility ([2]; pH 7.4) [mg/mL] | solubility ([2]; pH 7.4, aqueous buffer) [mg/mL] | fraction unbound at 30 min, 1000 nmol/L ([3]; plasma (K2-EDTA), fraction unbound, human plasma, 1000 nmol/L peptide, ultracentrifugation) | half-life ([4]; iv, 3 nmol/kg) [h] | MRT last ([4]; sc, 3 nmol/kg) [h] | Oral Glucose Tolerance Test Percent decrease in blood glucose AUC (%) over 60 mins [5] | Human PPB (FUplasma) [3, 7] | EC50 [6] [nM]
1 | CC[C@H](C)[C@H](NC(=O)[C@H](Cc1ccccc1)NC(=O)[C@@H](NC(=O)CNC(=O)[C@H](CCC(=O)O)NC(=O)C(C)(C)NC(=O)[C@H](Cc1ccc(O)cc1)NC)[C@@H](C)O)C(=O)N[C@@H](CO)C(=O)N[C@@H](CC(=O)O)C(=O)N[C@@H](Cc1ccc(O)cc1)C(=O)N[C@@H](CO)C(=O)N[C@H](C(=O)NC(C)(C)C(=O)N[C@@H](CC(C)C)C(=O)N[C@@H](CC(=O)O)C(=O)N[C@@H](CCCNC(=N)N)C(=O)NC(C)(C)C(=O)N[C@@H](C)C(=O)N[C@@H](CCC(N)=O)C(=O)NC(C)(C)C(=O)N[C@@H](CC(N)=O)C(=O)N[C@@H](Cc1ccccc1)C(=O)N[C@H](C(=O)N[C@@H](CC(N)=O)C(=O)N[C@@H](Cc1c[nH]c2ccccc12)C(=O)N[C@@H](CC(C)C)C(=O)N[C@@H](CC(C)C)C(=O)N[C@@H](C)C(=O)N[C@@H](CCC(N)=O)C(=O)N[C@@H](CCCCNC(=O)COCCOCCNC(=O)COCCOCCNC(=O)CC[C@H](NC(=O)CC[C@H](NC(=O)CCCCCCCCCCCCCCCC(=O)O)C(=O)O)C(=O)O)C(=O)N1CCC[C@H]1C(=O)N[C@@H](CO)C(=O)N[C@@H](CO)C(=O)NCC(=O)N[C@@H](C)C(=O)N1CCC[C@H]1C(=O)N1CCC[C@H]1C(=O)N1CCC[C@H]1C(=O)N[C@@H](CO)C(N)=O)C(C)C)[C@@H](C)CC [Compound 16] (H-[NMeY][Aib]EGTFISDYSI[Aib]LDR[Aib]AQ[Aib]NFVNWLLAQK([AEEA-AEEA-γGlu-γGlu-C17 diacid])PSSGAPPPS-NH2) | ≤ 0.00116 | ≥ 30 | ≥ 15 | < 0.0012 | optimum free unbound peptide | 59 | 38 | 59 | – | – | – | – | – | – | – | – | –
2 | CC[C@H](C)[C@H](NC(=O)[C@H](Cc1ccccc1)NC(=O)[C@@H](NC(=O)CNC(=O)[C@H](CCC(=O)O)NC(=O)C(C)(C)NC(=O)[C@H](Cc1ccc(O)cc1)NC)[C@@H](C)O)C(=O)N[C@@H](CO)C(=O)N[C@@H](CC(=O)O)C(=O)N[C@@H](Cc1ccc(O)cc1)C(=O)N[C@@H](CO)C(=O)N[C@H](C(=O)NC(C)(C)C(=O)N[C@@H](CC(C)C)C(=O)N[C@@H](CC(=O)O)C(=O)N[C@@H](CCCNC(=N)N)C(=O)NC(C)(C)C(=O)N[C@@H](C)C(=O)N[C@@H](CCC(N)=O)C(=O)NC(C)(C)C(=O)N[C@@H](CC(N)=O)C(=O)N[C@@H](Cc1ccccc1)C(=O)N[C@H](C(=O)N[C@@H](CC(N)=O)C(=O)N[C@@H](Cc1c[nH]c2ccccc12)C(=O)N[C@@H](CC(C)C)C(=O)N[C@@H](CC(C)C)C(=O)N[C@@H](C)C(=O)N[C@@H](CCC(N)=O)C(=O)N[C@@H](CCCCNC(=O)COCCOCCNC(=O)COCCOCCNC(=O)CC[C@H](NC(=O)CC[C@H](NC(=O)CCCCCCCCCCCCCCCCC(=O)O)C(=O)O)C(=O)O)C(=O)N1CCC[C@H]1C(=O)N[C@@H](CO)C(=O)N[C@@H](CO)C(=O)NCC(=O)N[C@@H](C)C(=O)N1CCC[C@H]1C(=O)N1CCC[C@H]1C(=O)N1CCC[C@H]1C(=O)N[C@@H](CO)C(N)=O)C(C)C)[C@@H](C)CC [Compound 27, Me-Y-Aib-E-G-T-F-I-S-D-Y-S-I-Aib-L-D-R-Aib-A-Q-Aib-N-F-V-N-W-L-L-A-Q-Km-P-S-S-G-A-P-P-P-S-NH2] (H-[NMeY][Aib]EGTFISDYSI[Aib]LDR[Aib]AQ[Aib]NFVNWLLAQK([AEEA-AEEA-γGlu-γGlu-C18 diacid])PSSGAPPPS-NH2) | – | – | – | – | optimum free unbound peptide | – | – | – | <0.002 | ≥ 15 | ≥ 30 | 0.0013 | 77 | 109 | – | – | –
3 | CC[C@H](C)[C@H](NC(=O)[C@H](CO)NC(=O)[C@H](Cc1ccc(O)cc1)NC(=O)[C@H](CC(=O)O)NC(=O)[C@H](CO)NC(=O)[C@@H](NC(=O)[C@H](Cc1ccccc1)NC(=O)[C@@H](NC(=O)CNC(=O)[C@H](CCC(=O)O)NC(=O)C(C)(C)NC(=O)[C@H](Cc1ccc(O)cc1)NC)[C@@H](C)O)[C@@H](C)CC)C(=O)N[C@@H](C)C(=O)N[C@@H](CCCCNC(=O)CNC(=O)CNC(=O)CNC(=O)CNC(=O)CNC(=O)CCCCCCCCCCCCCCCCCCC(=O)O)C(=O)N[C@@H](CC(=O)O)C(=O)N[C@@H](CCCNC(=N)N)C(=O)NC(C)(C)C(=O)N[C@@H](C)C(=O)N[C@@H](CCC(N)=O)C(=O)NC(C)(C)C(=O)N[C@@H](CC(N)=O)C(=O)N[C@@H](Cc1ccccc1)C(=O)N[C@H](C(=O)N[C@@H](CC(N)=O)C(=O)N[C@@H](Cc1c[nH]c2ccccc12)C(=O)N[C@@H](CC(C)C)C(=O)N[C@@H](CC(C)C)C(=O)N[C@@H](C)C(=O)N[C@@H](CCC(N)=O)C(=O)N[C@@H](CO)C(=O)N1CCC[C@H]1C(=O)N[C@@H](CO)C(=O)N[C@@H](CO)C(=O)NCC(=O)N[C@@H](C)C(=O)N1CCC[C@H]1C(=O)N1CCC[C@H]1C(=O)N1CCC[C@H]1C(=O)N[C@@H](CO)C(=O)O)C(C)C [Compound 40] | 0.0004 | – | – | – | – | – | – | – | – | – | – | – | – | – | 102% (3 nmol/kg) | <0.002 | 5.6
